From patent US12286442B2, “Methods and materials for increasing transcription factor eb polypeptide levels” (University of Pittsburgh—Of the Commonwealth System of …, priority 2019, dated 2025)

Test system: TFEB
Assay: High content screen measuring TFEB nuclear accumulation (TFEB nuclear/cytosol ratio) in BEAS-2B cells stably expressing TFEB-EGFP
Format: cell-based, human
Conditions: 18 hours incubation
Summary of the method: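 BEAS-2B cells stably expressing TFEB-EGFP (~2300–2500 per well) pre-incubated 8 hours, then exposed to serially diluted compounds (DMEM low glucose, 2% FBS) for 18 hours, PFA-fixed and DAPI-stained. Imaged nuclear (DAPI mask) vs cytosolic (expanded mask) TFEB-GFP; activity = minimal concentration raising nuclear/cytosol ratio by 25%.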

Structure (SMILES)	efficacy (minimal compound concentration needed to increase TFEB nuclear/cytosol ratio by 25%)
CC(C)c1nc2ccc(Nc3nc(-c4ccncc4)nc4ccccc34)cc2s1 [Compound 94]	+++ (“+++” equals ≤1 μM)
Cn1cnc2cc(Nc3nc(-c4ccncc4)nc4ccccc34)ccc21 [Compound 28]	+ (“+” equals >25 μM)
Cn1c(=O)c2ccccc2n(CC(=O)Nc2ccc(F)cc2)c1=O [Compound 225]	+ (“+” equals >25 μM)
CCCN(CCC)c1nc(-c2ccncc2)nc2ccccc12 [Compound 166]	+ (“+” equals >25 μM)
CCc1nc2ccc(Nc3nc(-c4ccncc4)nc4c(F)cccc34)cc2s1 [Compound 369]	+ (“+” equals >25 μM)
Fc1cc(Nc2nc(-c3cc[nH]c3)nc3ncccc23)cc2cc[nH]c12 [Compound 385]	++ (“++” equals between ≤25 μM and >1 μM)
Cc1nc2ccc(Nc3nc(-c4ccncc4)nc4c(C)cccc34)cc2o1 [Compound 377]	++ (“++” equals between ≤25 μM and >1 μM)
Cc1nc2cc(Cl)c(Nc3nc(-c4ccncc4)nc4ccccc34)cc2o1 [Compound 143]	+++ (“+++” equals ≤1 μM)
CCc1nc2ccc(Nc3nc(-c4ccncc4)nc4ccc(C)cc34)cc2s1 [Compound 147]	++ (“++” equals between ≤25 μM and >1 μM)
Fc1cccc(Cc2nc(-c3ccncc3)nc3ccccc23)c1 [Compound 7]	+ (“+” equals >25 μM)
O=C(c1cccc(F)c1)c1nc(-c2ccncc2)nc2ccccc12 [Compound 5]	+ (“+” equals >25 μM)
Fc1cccc(Nc2nc(-c3cncs3)nc3ccccc23)c1 [Compound 79]	+ (“+” equals >25 μM)
c1ccc2c(Nc3cccc4[nH]ccc34)nc(-c3ccncc3)nc2c1 [Compound 97]	+++ (“+++” equals ≤1 μM)
CCCCc1nc2ccc(Nc3nc(-c4ccncc4)nc4ccccc34)cc2o1 [Compound 359]	+ (“+” equals >25 μM)
c1ccc2c(Nc3ccc4[nH]c5c(c4c3)CCCC5)nc(-c3ccncc3)nc2c1 [Compound 73]	+++ (“+++” equals ≤1 μM)
c1cnc2nc(-c3ccncc3)nc(Nc3ccc4nc(C5CC5)sc4c3)c2c1 [Compound 131]	+++ (“+++” equals ≤1 μM)
COc1ccc(-n2c(=O)c3ccccc3n(Cc3ccccc3F)c2=O)cc1 [Compound 235]	++ (“++” equals between ≤25 μM and >1 μM)
Cn1c(=O)c2ccccc2n(CC(=O)Nc2ccccc2)c1=O [Compound 224]	+ (“+” equals >25 μM)
Cn1ncc2ccc(Nc3nc(-c4ccncc4)nc4ccccc34)cc21 [Compound 23]	+++ (“+++” equals ≤1 μM)
Cc1nc2ccc(Nc3nc(-c4ccncc4)cc4ncccc34)cc2s1 [Compound 400]	+++ (“+++” equals ≤1 μM)
c1ccc2c(Nc3ccc4cn[nH]c4c3)nc(-c3ccncc3)nc2c1 [Compound 11]	+++ (“+++” equals ≤1 μM)
c1cc(-c2cc3cnccc3c(Nc3ccc4[nH]c(C5CC5)cc4c3)n2)ccn1 [Compound 399]	+++ (“+++” equals ≤1 μM)
c1cnc2nc(-c3cncs3)nc(Nc3ccc4[nH]ncc4c3)c2c1 [Compound 383]	++ (“++” equals between ≤25 μM and >1 μM)
Cc1nc2cc(Cl)c(Nc3nc(-c4ccncc4)nc4ccncc34)cc2o1 [Compound 144]	+ (“+” equals >25 μM)
Cc1cccc2c(Nc3ccc4nc(C(C)C)sc4c3)nc(-c3ccncc3)nc12 [Compound 155]	+++ (“+++” equals ≤1 μM)
COc1cc(-c2nc(Nc3cc(F)ccc3C)c3ccccc3n2)cc(OC)c1OC [Compound 198]	+ (“+” equals >25 μM)
N#Cc1c[nH]c2ccc(Nc3nc(-c4ccncc4)nc4ccccc34)cc12 [Compound 38]	+ (“+” equals >25 μM)
O=C(Cn1c(=O)n(-c2ccccc2)c(=O)c2ccccc21)Nc1cccc(Cl)c1 [Compound 227]	+ (“+” equals >25 μM)
NC1CCC(Nc2nc(-c3ccncc3)nc3ccccc23)CC1 (stereo not drawn) [Compound 60]	+ (“+” equals >25 μM)
Cc1nc2ccc(Nc3nc(-c4ccncc4)nc4ncccc34)cc2s1 [Compound 128]	+++ (“+++” equals ≤1 μM)

Test system: BEAS-2B cells
Assay: Toxicity: compound concentration needed to induce greater than 50 percent of cell loss
Format: cell-based, human
Conditions: 18 hours incubation
Summary of the method: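 BEAS-2B cells stably expressing TFEB-EGFP treated with serial compound dilutions for 18 h, then PFA-fixed, DAPI-stained and imaged. Toxicity scored as the concentration causing >50% cell loss, binned as ≥25 μM, <25 and >1 μM, or ≤1 μM ("+++").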

Structure (SMILES)	toxicity (compound concentration needed to induce greater than 50 percent of cell loss)
CC(C)c1nc2ccc(Nc3nc(-c4ccncc4)nc4ccccc34)cc2s1 [Compound 94]	+ (cell loss of greater than 50 percent at a concentration that equals or is greater than 25 μM was represented as)
Cn1cnc2cc(Nc3nc(-c4ccncc4)nc4ccccc34)ccc21 [Compound 28]	+ (cell loss of greater than 50 percent at a concentration that equals or is greater than 25 μM was represented as)
Cn1c(=O)c2ccccc2n(CC(=O)Nc2ccc(F)cc2)c1=O [Compound 225]	+ (cell loss of greater than 50 percent at a concentration that equals or is greater than 25 μM was represented as)
CCCN(CCC)c1nc(-c2ccncc2)nc2ccccc12 [Compound 166]	+ (cell loss of greater than 50 percent at a concentration that equals or is greater than 25 μM was represented as)
CCc1nc2ccc(Nc3nc(-c4ccncc4)nc4c(F)cccc34)cc2s1 [Compound 369]	+ (cell loss of greater than 50 percent at a concentration that equals or is greater than 25 μM was represented as)
Fc1cc(Nc2nc(-c3cc[nH]c3)nc3ncccc23)cc2cc[nH]c12 [Compound 385]	+ (cell loss of greater than 50 percent at a concentration that equals or is greater than 25 μM was represented as)
Cc1nc2ccc(Nc3nc(-c4ccncc4)nc4c(C)cccc34)cc2o1 [Compound 377]	+ (cell loss of greater than 50 percent at a concentration that equals or is greater than 25 μM was represented as)
Cc1nc2cc(Cl)c(Nc3nc(-c4ccncc4)nc4ccccc34)cc2o1 [Compound 143]	+ (cell loss of greater than 50 percent at a concentration that equals or is greater than 25 μM was represented as)
CCc1nc2ccc(Nc3nc(-c4ccncc4)nc4ccc(C)cc34)cc2s1 [Compound 147]	+ (cell loss of greater than 50 percent at a concentration that equals or is greater than 25 μM was represented as)
Fc1cccc(Cc2nc(-c3ccncc3)nc3ccccc23)c1 [Compound 7]	+ (cell loss of greater than 50 percent at a concentration that equals or is greater than 25 μM was represented as)
O=C(c1cccc(F)c1)c1nc(-c2ccncc2)nc2ccccc12 [Compound 5]	+ (cell loss of greater than 50 percent at a concentration that equals or is greater than 25 μM was represented as)
Fc1cccc(Nc2nc(-c3cncs3)nc3ccccc23)c1 [Compound 79]	+ (cell loss of greater than 50 percent at a concentration that equals or is greater than 25 μM was represented as)
c1ccc2c(Nc3cccc4[nH]ccc34)nc(-c3ccncc3)nc2c1 [Compound 97]	+ (cell loss of greater than 50 percent at a concentration that equals or is greater than 25 μM was represented as)
CCCCc1nc2ccc(Nc3nc(-c4ccncc4)nc4ccccc34)cc2o1 [Compound 359]	+ (cell loss of greater than 50 percent at a concentration that equals or is greater than 25 μM was represented as)
c1ccc2c(Nc3ccc4[nH]c5c(c4c3)CCCC5)nc(-c3ccncc3)nc2c1 [Compound 73]	+++ (cell loss of greater than 50 percent at a concentration that equals or is less than 1 μM was represented as “+++.”)
c1cnc2nc(-c3ccncc3)nc(Nc3ccc4nc(C5CC5)sc4c3)c2c1 [Compound 131]	+ (cell loss of greater than 50 percent at a concentration that equals or is greater than 25 μM was represented as)
COc1ccc(-n2c(=O)c3ccccc3n(Cc3ccccc3F)c2=O)cc1 [Compound 235]	+ (cell loss of greater than 50 percent at a concentration that equals or is greater than 25 μM was represented as)
Cn1c(=O)c2ccccc2n(CC(=O)Nc2ccccc2)c1=O [Compound 224]	+ (cell loss of greater than 50 percent at a concentration that equals or is greater than 25 μM was represented as)
Cn1ncc2ccc(Nc3nc(-c4ccncc4)nc4ccccc34)cc21 [Compound 23]	+ (cell loss of greater than 50 percent at a concentration that equals or is greater than 25 μM was represented as)
Cc1nc2ccc(Nc3nc(-c4ccncc4)cc4ncccc34)cc2s1 [Compound 400]	+ (cell loss of greater than 50 percent at a concentration that equals or is greater than 25 μM was represented as)
c1ccc2c(Nc3ccc4cn[nH]c4c3)nc(-c3ccncc3)nc2c1 [Compound 11]	+ (cell loss of greater than 50 percent at a concentration that equals or is greater than 25 μM was represented as)
c1cc(-c2cc3cnccc3c(Nc3ccc4[nH]c(C5CC5)cc4c3)n2)ccn1 [Compound 399]	+ (cell loss of greater than 50 percent at a concentration that equals or is greater than 25 μM was represented as)
c1cnc2nc(-c3cncs3)nc(Nc3ccc4[nH]ncc4c3)c2c1 [Compound 383]	+ (cell loss of greater than 50 percent at a concentration that equals or is greater than 25 μM was represented as)
Cc1nc2cc(Cl)c(Nc3nc(-c4ccncc4)nc4ccncc34)cc2o1 [Compound 144]	+ (cell loss of greater than 50 percent at a concentration that equals or is greater than 25 μM was represented as)
Cc1cccc2c(Nc3ccc4nc(C(C)C)sc4c3)nc(-c3ccncc3)nc12 [Compound 155]	+ (cell loss of greater than 50 percent at a concentration that equals or is greater than 25 μM was represented as)
COc1cc(-c2nc(Nc3cc(F)ccc3C)c3ccccc3n2)cc(OC)c1OC [Compound 198]	+ (cell loss of greater than 50 percent at a concentration that equals or is greater than 25 μM was represented as)
N#Cc1c[nH]c2ccc(Nc3nc(-c4ccncc4)nc4ccccc34)cc12 [Compound 38]	+ (cell loss of greater than 50 percent at a concentration that equals or is greater than 25 μM was represented as)
O=C(Cn1c(=O)n(-c2ccccc2)c(=O)c2ccccc21)Nc1cccc(Cl)c1 [Compound 227]	+ (cell loss of greater than 50 percent at a concentration that equals or is greater than 25 μM was represented as)
NC1CCC(Nc2nc(-c3ccncc3)nc3ccccc23)CC1 (stereo not drawn) [Compound 60]	+ (cell loss of greater than 50 percent at a concentration that equals or is greater than 25 μM was represented as)
Cc1nc2ccc(Nc3nc(-c4ccncc4)nc4ncccc34)cc2s1 [Compound 128]	+ (cell loss of greater than 50 percent at a concentration that equals or is greater than 25 μM was represented as)
